Data published in PMC7470111, “Escherichia coli γ-carbonic anhydrase: characterisation and effects of simple aromatic/heterocyclic sulphonamide inhibitors” (Journal of Enzyme Inhibition and Medicinal Chemistry, 2020).
pKi: −log10 of the molar value.

biological target: T1, EcoCAγ (Escherichia coli, UniProt P0A9W9); assay: biochemical; details: not given
T1 construct: gene yrdA; recombinant full-length WP_009008373.1, N-terminal His-tag, 72 extra N-terminal residues versus YrdA
T1 sequence (P0A9W9 1-184): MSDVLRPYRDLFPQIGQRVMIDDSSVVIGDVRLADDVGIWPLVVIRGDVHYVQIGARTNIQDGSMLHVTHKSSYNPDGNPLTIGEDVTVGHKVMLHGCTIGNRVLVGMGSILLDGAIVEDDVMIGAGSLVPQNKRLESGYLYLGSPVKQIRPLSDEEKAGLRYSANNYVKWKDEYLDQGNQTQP
Procedure: The CO2 hydration activity performed by the EcoCAγ was monitored using an Applied Photophysics stopped-flow instrument. […] To determine the kinetic parameters by Lineweaver-Burk plots and the inhibition constants, a concentration of CO2 between 1.7 to 17 mM was used. At least six measurements of the original 5–10% reaction were used to assess the initial velocity for each inhibitor. The uncatalyzed rates were identically determined and detracted from the total observed rates. Stock inhibitor solutions (10–100 mM) were prepared in distilled-deionized water and dilutions up to 0.01 mM were done with the buffer test. Inhibitor and enzyme solutions were preincubated together for 15 min at room temperature prior to assay, in order to allow for the formation of the E-I complex or for the eventual active site mediated hydrolysis of the inhibitor. The inhibition constants were obtained by non-linear least-squares methods using PRISM 6 and the Cheng-Prusoff equation, as reported earlier[12]^,[14]^,[68], and represent the mean from at least three different determinations. h CAI and hCA II were recombinant enzymes obtained in-house. The synthetic E. coli gene encoding for the EcoCAγ (Accession number: WP_009008373.1) was synthesised by the Invitrogen GeneArt (ThermoFisher Scientific), a company specialised in gene synthesis, and cloned into the expression vector pET100D-Topo/γ-CA. Briefly, the gene was designed to produce the recombinant EcoCAγ as fusion proteins with a tag containing nucleotides encoding for six histidines (His-Tag) at the amino terminus of neosynthetized recombinant protein. Competent E. coli BL21 (DE3) codon plus cells (Agilent) were transformed as described by Del Prete et al.. Isopropyl β-D-1-thiogalactopyranoside (IPTG) at the concentration of 1 mM was added to the cellular culture to overexpress the recombinant EcoCAγ. After growth, the cells were harvested and disrupted by sonication. Cellular extract was purified using a nickel affinity column (His-Trap FF), which allows the interaction between the matrix functionalised with Ni^2+ ions and the His-Tag at the N-terminus of the protein. The HisTrap column (1 ml) was equilibrated with 20 ml equilibration buffer (50 mM Tris, 20 mM imidazole and 150 mM sodium chloride, pH 7.5) at 1 ml/min. The supernatant from the cellular lysate was loaded onto the column at 1 ml/min, and eluted from the column by fluxing imidazole (300 mM) at a flow of 0.5 ml/min in a buffer composed of 50 mM Tris and 300 mM sodium chloride, pH 7.5. The recovered EcoCAγ was 90% pure. The protein quantification was carried out by Bradford method (BioRAD).

| Structure (SMILES) | pKi |
| --- | --- |
| NS(=O)(=O)c1cccc(S(N)(=O)=O)c1 [compound 3] | 6.61 |
| Cc1ccc(S(N)(=O)=O)cc1 [compound 4] | 6.66 |
| NCCc1ccc(S(N)(=O)=O)cc1 [compound 6] | 6.21 |
| Nc1ccc(S(N)(=O)=O)cc1F [compound 7] | 6.22 |
| Nc1ccc(S(N)(=O)=O)cc1Cl [compound 8] | 6.17 |
| Nc1ccc(S(N)(=O)=O)cc1Br [compound 9] | 6.14 |
| NS(=O)(=O)c1cc(Cl)cc(Cl)c1O [compound 10] | 5.59 |
| Nc1cc(C(F)(F)F)c(S(N)(=O)=O)cc1S(N)(=O)=O [compound 11] | 5.75 |
| Nc1cc(Cl)c(S(N)(=O)=O)cc1S(N)(=O)=O [compound 12] | 5.71 |
| Nc1nnc(S(N)(=O)=O)s1 [compound 13] | 6.71 |
| Cn1nc(S(N)(=O)=O)sc1=N [compound 14] | 6.15 |
| NS(=O)(=O)c1ccc(O)cc1 [compound 15] | 5.99 |
| NS(=O)(=O)c1ccc(CO)cc1 [compound 16] | 5.37 |
| NS(=O)(=O)c1ccc(CCO)cc1 [compound 17] | 5.70 |
| NS(=O)(=O)c1ccc(C(=O)O)cc1 [compound 18] | 5.69 |
| Nc1nccc(Nc2ccc(S(N)(=O)=O)cc2)n1 [compound 19] | 5.72 |
| Nc1ccc(S(=O)(=O)Nc2nnc(S(N)(=O)=O)s2)cc1 [compound 20] | 6.05 |
| Nc1ccc(S(=O)(=O)Nc2ccc(S(N)(=O)=O)cc2)cc1 [compound 22] | 5.46 |
| Nc1ccc(S(=O)(=O)NCc2ccc(S(N)(=O)=O)cc2)cc1 [compound 23] | 5.39 |
| Nc1ccc(S(=O)(=O)NCCc2ccc(S(N)(=O)=O)cc2)cc1 [compound 24] | 5.37 |

same assay, conditions: inhibitor

| Structure (SMILES) | pKi |
| --- | --- |
| Nc1cccc(S(N)(=O)=O)c1 [compound 1] | 6.50 |
| NS(=O)(=O)c1ccc(CCNS(=O)(=O)c2ccc([N+](=O)[O-])cc2CO)cc1 [compound 21] | 6.09 |
